Values of other authors, collected in patent US9981985B2, “Pharmaceutical formulations containing 3-(4-cinnamyl-l-piperazinyl) amino derivatives of 3-formylrifamycin SV and 3-formylrifamycin S and a process of their preparation” (Adipharm EAD, priority 2012, dated 2018).

Key:
[1] = in vivo tests, in comparison to rifampicin; from U.S. Pat. No. 5,095,108
[2] = in vivo
[3] = from U.S. Pat. No. 5,095,108
[4] = in vivo; remark: listed apart in the source

| Compound | therapeutic effect [1] | serum half-life [2] | acute toxicity [3] | pharmacokinetic properties [4] | resorption [4] |
| --- | --- | --- | --- | --- | --- |
| CO[C@H]1/C=C/O[C@@]2(C)Oc3c(C)c(O)c4c(O)c(c(/C=N/N5CCN(C/C=C/c6ccccc6)CC5)c(O)c4c3C2=O)NC(=O)/C(C)=C\C=C\[C@H](C)[C@H](O)[C@@H](C)[C@@H](O)[C@@H](C)[C@H](OC(C)=O)[C@@H]1C [Ia, 3-(4-cinnamyl-1-piperazinyl)-iminomethyl rifamycin SV] | higher therapeutic effect in comparison to rifampicin | considerably longer | low | – | – |
| sodium salt of 3-(4-cinnamyl-1-piperazinyl)-iminomethyl rifamycin SV [Compound Ib] | – | – | – | better | faster |
